Test results as given in publication PMC9082340 (ACS applied materials & interfaces, 2020).
Ends that are not written are not given here.

Legend:
[1] = previous literature reports; cited from earlier work
[2] = test system: HEK-293 T cells expressing PH-LgBiT; experiment: NanoLuc; type: cell-based; conditions: PyB 25–200 μM in PBS 5 min before 1 μM YARA-HiBiT or R6-HiBiT (Figure S29)
HEK-293 T cells = type: cell-based; conditions: pyrene butyrate treatment
[3] = test system: A7r5 rat aortic vascular smooth muscle cells; experiment: Cell viability; type: cell-based; conditions: 10 μM peptide, A7r5 cells (Figure S19-G)

O=C(O)CCCc1ccc2ccc3cccc4ccc1c2c34 [pyrene butyrate, 1-pyrenebutyric acid]
Activity enhancement reported for pyrene butyrate [1]: 1.5–5 fold
Increase in activity over peptide alone with pyrene butyrate [2]: ≤ 1.3 fold
Cell viability at 100 μM (29 μg/mL) (HEK-293 T cells): 65%
Cell viability at 200 μM (58 μg/mL) (HEK-293 T cells): 57%

YARAAARQARAKALARQLGVAA [YARA-MK2i]
Toxicity of peptide dose [3]: nontoxic
